From the NIST ThermoML archive (doi:10.1021/je100256w)

Assay: cn = amount concentration of the nth substance listed, in mol/dm3
Conditions: 101 kPa, Liquid, Dip Cell

O=C([O-])c1ccccc1.[Na+] [sodium benzoate] + O
electrical conductivity [S/m]
Conditions | 308 K | 313 K
c1 = 1.98e-05 | 1.97e-05 | 2.22e-05
c1 = 3.92e-05 | 3.66e-05 | 4.21e-05
c1 = 5.82e-05 | 5.48e-05 | 5.98e-05
c1 = 7.69e-05 | 6.76e-05 | 7.77e-05
c1 = 9.52e-05 | 8.72e-05 | 9.3e-05
c1 = 0.0001221 | 0.000107 | 0.000116
c1 = 0.0001567 | 0.000133 | 0.000143
c1 = 0.00019 | 0.000157 | 0.000167
c1 = 0.0002222 | 0.000178 | 0.00019
c1 = 0.0002533 | 0.000197 | 0.0002038
c1 = 0.0002906 | 0.000206 | 0.000221
c1 = 0.0003264 | 0.000224 | 0.000243
c1 = 0.0003607 | 0.000243 | 0.000262
c1 = 0.0004 | 0.000261 | 0.000285
c1 = 0.0004375 | 0.000284 | 0.000307
c1 = 0.0004791 | 0.000304 | 0.000332
c1 = 0.000524 | 0.000326 | 0.000354
c1 = 0.0005663 | 0.000338 | 0.000375
c1 = 0.0006063 | 0.000362 | 0.00039
c1 = 0.0006532 | 0.000381 | 0.000412
c1 = 0.0007055 | 0.000393 | 0.000439
c1 = 0.0007616 | 0.000428 | 0.000462
c1 = 0.0008131 | 0.000446 | 0.000486
c1 = 0.0008669 | 0.000463 | 0.000507
c1 = 0.0009218 | 0.000483 | 0.000526
c1 = 0.000977 | 0.000493 | 0.000547
c1 = 0.001027 | 0.000514 | 0.000563
